Measured values taken from patent EP1181934A1, “INHIBITORS FOR OPTIC HYPOFUNCTION CAUSED BY OPTIC NERVE CELL INJURY INDUCED BY FACTORS OTHER THAN OPTIC CIRCULATORY DISORDER” (Senju Pharmaceutical Co., Ltd., priority 1999, dated 2000).

What was measured:
[1] = system: ischemic retinal neurocyte disorder; conditions: calcium antagonists; experiment models such as high ocular pressure rat models and central retinal artery and vein ligation models; cited from earlier work
retinal ganglion cells [2] = test: central retinal artery and vein ligation model (ischemia/re-perfusion), retinal ganglion cell count; type: in vivo; conditions: male SD rats; hemostasis 55 minutes; 10 µg/kg via the tail vein twice (15 min before hemostasis and immediately after declamping); day 7 from release from ischemia; vs ischemic re-perfusion group, P<0.027 (Fig. 1, n=6)
Procedure: Effect of the inventive compound on an ophthalmic nerve cell disorder in rats was tested using a central retinal artery and vein ligation model, which is a model for examining increase in a calcium amount in an optic nerve cell.
Male SD rats (body weight 150 g) were grouped into a normal group, ischemic re-perfusion group and inventive compound administration group. The ischemic re-perfusion group and the inventive compound administration group were anesthetized with pentobarbital 50 mg/kg, and the central retinal artery and vein were ligated with an arterial aneurysm clip for hemostasis for 55 minutes. At 7 days from declamping, eyeballs were removed and fixed with 4% formaldehyde to prepare a tissue sample. After embedding in paraffin according to a conventional method, a thin slice (2 µm thick) was prepared by horizontal section vertical to a surface of the retina including the optic disc, and stained with hematoxylin-eosin. The number of retinal ganglion cells per a 0.25 mm retina vertical section at a certain distance (1-2 mm) from the optic disc was counted under an optical microscope. As regards the normal group, the number of retinal ganglion cells was counted in the same manner only with exposure of the central retinal artery and vein and without hemostasis. […]
Significance was detected by the Student's t-Test.

retinal ganglion cells [3] = test: cell death induction by increased intracellular calcium amount (kainic acid) in isolated retinal ganglion cells, MTT; type: cell-based; conditions: retinal ganglion cells of 8-day-old rats, 5 mM calcium chloride, pH 6.0, 1 h pre-incubation with compound, then 200 µM kainic acid, vs cell death induction group, P<0.01 (Fig. 2)
Procedure: The retina was obtained from ten 8-day-old rats and treated with papain to give a cell suspension. Using a non-coat dish (TERUMO) and a dish (CORNING) coated with Thy-1.1 antibody (American Type Culture Collection, […]), retinal ganglion cells alone were isolated from the whole cells of the retina. The retinal ganglion cells on the dish were trypsinized and recovered. Then the recovered retinal ganglion cells were plated on a 96 well plate coated with poly-D-lysine and laminin at a concentration of 5000 cells/well/100 μl. The isolated retinal ganglion cells were divided for the normal group, cell death induction group and inventive compound administration group. As the cultures of the cell death induction group and inventive compound administration group, calcium chloride was added to Neurobasal medium (GIBCO) at a final concentration of 5 mM to adjust its pH to 6.0 and used. As the additives to the culture, 40 ng/ml BDNF (Pepro Tech), 40 ng/ml CNTF (Sigma), 5 μM Forskolin (Sigma), 1 mM glutamine (Wako), 50x B27 supplement (GIBCO) and Pen-strep (GIBCO) were added. For the inventive compound administration group, the inventive compound was added simultaneously with the plating of the cells and pre-incubated at 37°C for 1 h. After 1 h, kainic acid having a final concentration of 200 μM was added and the mixture was incubated at 37°C to induce cell death. […]

Row | Compound | inhibition of ischemic retinal neurocyte disorder [1] | number of residual retinal ganglion cells in 0.25 mm of vertical retinal cross section (retinal ganglion cells [2]) | viability (%) relative to that of a normal group (retinal ganglion cell count) (retinal ganglion cells [3])
1 | Fc1ccc(C(c2ccc(F)cc2)N2CCN(C/C=C/c3ccccc3)CC2)cc1 [flunarizine] | inhibited ischemic retinal neurocyte disorder | – | –
2 | C=CCN1CCN(CC(C)(C)COC(=O)C2=C(C)NC(C)=C(C(=O)OC)C2c2cccc([N+](=O)[O-])c2)CC1.Cl.Cl (stereo not drawn) [inventive compound, 3-(4-allyl-1-piperazinyl)-2,2-dimethylpropyl methyl 2,6-dimethyl-4-(m-nitrophenyl)-1,4-dihydropyridine-3,5-dicarboxylate dihydrochloride] | – | significantly inhibited decrease in the retinal ganglion cell count | significantly inhibited decrease in the retinal ganglion cell count
